# Test results from EP4813984A1 (Jiangsu Hengrui Pharmaceuticals Co., Ltd., priority 2023, dated 2025).
# How the values were obtained:
# hGLP-1 receptor = target: T1, hGLP-1 receptor (Homo sapiens, UniProt P43220); experiment: Agonist activity against GLP-1 receptor (CRE-luciferase reporter, ONE-Glo Luciferase Assay System); type: cell-based; settings: CHO-K1/CRE-luc/hGLP-1 receptor cells; 5 h incubation with compound; chemiluminescence readout
# T1 construct: expressed in transfected cells; host or cells: CHO-K1 (stably transfected with hGLP-1 receptor plasmid and CRE-luc plasmid)
# T1 sequence (P43220 24-463): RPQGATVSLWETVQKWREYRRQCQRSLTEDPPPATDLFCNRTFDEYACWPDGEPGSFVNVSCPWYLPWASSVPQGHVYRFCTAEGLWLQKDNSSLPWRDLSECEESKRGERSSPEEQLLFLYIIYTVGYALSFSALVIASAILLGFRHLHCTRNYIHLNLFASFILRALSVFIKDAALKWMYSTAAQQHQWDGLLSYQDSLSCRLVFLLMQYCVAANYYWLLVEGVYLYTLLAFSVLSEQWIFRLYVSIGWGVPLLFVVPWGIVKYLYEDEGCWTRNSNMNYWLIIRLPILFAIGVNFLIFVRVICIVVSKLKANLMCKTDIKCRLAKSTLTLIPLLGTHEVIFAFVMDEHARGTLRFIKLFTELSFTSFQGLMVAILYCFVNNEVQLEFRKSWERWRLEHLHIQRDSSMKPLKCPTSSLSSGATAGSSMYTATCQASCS
# Excerpt: This experiment was intended to test the agonist activity of compound molecules against hGLP-1 receptor and evaluate the in vitro activity of the molecules according to EC50. In this experiment, ONE-Glo™ Luciferase Assay System (ONE-Glo™ Luciferase Assay System, Promega, E6110) was used. Under the action of the compound molecules, GLP-1R downstream signaling pathways were activated to cause elevated cAMP level. The binding of cAMP to CRE could initiate the transcriptional expression of a CRE downstream luciferase gene. The luciferase could emit fluorescence when reacting with a substrate thereof. The fluorescence signal, which reflected the activity of the compound for agonizing GLP-1 receptor, was measured by means ONE-Glo™ reagent.
# A stably transfected CHO-K1/CRE-luc/hGLP-1 receptor cell strain (hGLP-1 receptor plasmid constructed in-house and CRE-luc plasmid Promega E8471) was constructed. CHO-K1/CRE-luc/hGLP-1 receptor cells were digested, centrifuged, and then resuspended. The single cell suspension was uniformly mixed and adjusted to a viable cell density of 2.78 × 10^5 cells/ml with a cell culture medium (DME/F-12 + 10% FBS). The resulting solution was added to a 96-well cell culture plate at 90 µL/well (Corning, #3903). The culture plate was incubated in an incubator for 16 h (37°C, 5% CO2).
# The compound was dissolved in DMSO to prepare a stock solution with an initial concentration of 20 mM. The starting concentration of the small molecule compound was 0.02 mM. The compound was subjected to 3-fold dilution for 10 points, wherein the 11th point was DMSO. Another 96-well plate was taken, to which was added 95 µL/well of a cell culture medium (DME/F-12 + 10% FBS), followed by 5 µL/well of test samples with different concentrations. The mixtures were uniformly mixed. Next, 10 µL/well of test samples with different concentrations were added to the cell culture plate, with two duplicate wells for each sample. The culture plate was incubated in an incubator for 5 h (37°C, 5% CO2). The 96-well cell culture plate was taken out. 100 µL/well of ONE-Glo™ reagent was added, followed by incubation at room temperature for 10 minutes. Chemiluminescence was measured in and by a microplate reader (PHERAstar FS, BMG labtech).
# Data were processed and analyzed using Microsoft Excel and Graphpad Prism 10. EC50 values of the compounds were obtained. Table 1. Agonist activity of the compounds of the present invention against hGLP-1 receptor
# [1] = Pharmacokinetic evaluation in monkeys after intragastric gavage (plasma LC-MS/MS); type: in vivo; settings: both sexes, cynomolgus monkey, po, i.g., 1 mg/kg
# Description: Using cynomolgus monkeys as test animals, the plasma concentrations of the example compounds at different time points were determined by an LC-MS/MS method following administration to the monkeys by intragastric gavage (i.g.). The pharmacokinetic behaviors of the compounds of the present invention in monkeys were investigated, and the pharmacokinetic profiles thereof were evaluated.
# Compound 9: Three cynomolgus monkeys (two males and one female) were provided by Guangxi Nanning Tongling Shengwu Keji Youxian Gongsi, with production license SCXK Gui-2020-0002.
# Compound 9: A certain amount of the test compound was separately weighed. 5% DMSO + 30% PG + 30% PEG400 + 35% normal saline were added to prepare a 0.4 mg/mL colorless and clear solution.
# Compound 9: Administration dose was 1 mg/kg and administration volume was 2.5 mL/kg.
# 0.5 mL of blood samples were collected from the vein before administration and at 0.25, 0.5, 1.0, 2.0, 4.0, 6.0, 8.0, 11.0, and 24.0 hours after administration and placed in EDTA-K2 anticoagulant tubes, followed by centrifugation at 10000 rpm for 2 minutes (4°C). The plasma was separated within 1 hour and stored at -20°C or -80°C for analysis. The process from blood collection to centrifugation was operated under ice bath condition.
# Determination of test compound contents in […] after administration of different compounds: Compound 9: 50 µL of the monkey plasma sample collected at each time point after administration was taken. 25 µL of an internal standard acetonitrile solution (tolbutamide, 1 ug/mL) was added, followed by 450 µL of an acetonitrile solution. The mixture was vortexed and mixed, followed by centrifugation at 3700 rpm for 10 min. The supernatant was taken for LC-MS/MS analysis.
Compound,EC50 (hGLP-1 receptor),Emax (hGLP-1 receptor),Vd/F ([1]; read-out: Apparent volume of distribution Vz/F),AUC(0-t) ([1]; read-out: Area under the curve AUC0-t),bioavailability ([1]; read-out: Bioavailability F),CL/F ([1]; read-out: Clearance CL/F),half-life ([1]; read-out: Half life T1/2 (converted)),Cmax ([1]; read-out: Plasma concentration Cmax)
"Cc1cc(-n2nc3c(c2-c2cncn(-c4ccc5c(cnn5C)c4)c2=O)[C@H](C)N(C(=O)c2cc4cc([C@H]5CCOC(C)(C)C5)ccc4n2[C@@]2(c4noc(=O)[nH]4)C[C@@H]2C)CC3)cc(C)c1F [Compound 9, 3-((1S,2S)-1-(5-((S)-2,2-dimethyltetrahydro-2H-pyran-4-yl)-2-((S)-2-(4-fluoro-3,5-dimethylphenyl)-4-methyl-3-(1-(1-methyl-1H-indazol-5-yl)-6-oxo-1,6-dihydropyrimidin-5-yl)-4,5,6,7-tetrahydro-2H-pyrazolo[4,3-c]pyridine-5-carbonyl)-1H-indol-1-yl)-2-methylcyclopropyl)-1,2,4-oxadiazol-5(4H)-one]",0.06 nM,18.96 fold,6.12 L/kg,1180 ng·h/mL,44.5%,12.4 mL/min/kg,5.88 h,178 ng/mL
"C[C@H]1c2c(nn(-c3ccc(F)c(C4CC4)c3)c2-c2cncn(-c3ccc4c(cnn4C)c3)c2=O)CCN1C(=O)c1cc2cc([C@H]3CCOC(C)(C)C3)ccc2n1[C@@]1(c2noc(=O)[nH]2)C[C@@H]1C [Compound 42, 3-((1S,2S)-1-(2-((S)-2-(3-cyclopropyl-4-fluorophenyl)-4-methyl-3-(1-(1-methyl-1H-indazol-5-yl)-6-oxo-1,6-dihydropyrimidin-5-yl)-4,5,6,7-tetrahydro-2H-pyrazolo[4,3-c]pyridine-5-carbonyl)-5-((S)-2,2-dimethyltetrahydro-2H-pyran-4-yl)-1H-indol-1-yl)-2-methylcyclopropyl)-1,2,4-oxadiazol-5(4H)-one]",0.05 nM,19.67 fold,,,,,,

# More lines, now with the values ahead:
EC50 (hGLP-1 receptor),Emax (hGLP-1 receptor),Vd/F ([1]; read-out: Apparent volume of distribution Vz/F),AUC(0-t) ([1]; read-out: Area under the curve AUC0-t),bioavailability ([1]; read-out: Bioavailability F),CL/F ([1]; read-out: Clearance CL/F),half-life ([1]; read-out: Half life T1/2 (converted)),Cmax ([1]; read-out: Plasma concentration Cmax),Compound
0.05 nM,18.56 fold,,,,,,,"Cc1cc(-n2nc3c(c2-c2cncn(-c4ccc5c(cnn5C5CC5)c4)c2=O)[C@H](C)N(C(=O)c2cc4cc([C@H]5CCOC(C)(C)C5)ccc4n2[C@@]2(c4noc(=O)[nH]4)C[C@@H]2C)CC3)cc(C)c1F [Compound 41, 3-((1S,2S)-1-(2-((S)-3-(1-(1-cyclopropyl-1H-indazol-5-yl)-6-oxo-1,6-dihydropyrimidin-5-yl)-2-(4-fluoro-3,5-dimethylphenyl)-4-methyl-4,5,6,7-tetrahydro-2H-pyrazolo[4,3-c]pyridine-5-carbonyl)-5-((S)-2,2-dimethyltetrahydro-2H-pyran-4-yl)-1H-indol-1-yl)-2-methylcyclopropyl)-1,2,4-oxadiazol-5(4H)-one]"
0.05 nM,16.76 fold,,,,,,,"C[C@H]1c2c(nn(-c3ccc(F)c(C4CC4)c3)c2N2C[C@@H]3COc4cc5c(cnn5C5CC5)c(F)c4N3C2=O)CCN1C(=O)c1cc2cc([C@H]3CCOC(C)(C)C3)ccc2n1[C@@]1(c2noc(=O)[nH]2)C[C@@H]1C [Compound 46, (R)-7-cyclopropyl-2-((S)-2-(3-cyclopropyl-4-fluorophenyl)-5-(5-((S)-2,2-dimethyltetrahydro-2H-pyran-4-yl)-1-((1S,2S)-2-methyl-1-(5-oxo-4,5-dihydro-1,2,4-oxadiazol-3-yl)cyclopropyl)-1H-indole-2-carbonyl)-4-methyl-4,5,6,7-tetrahydro-2H-pyrazolo[4,3-c]pyridin-3-yl)-10-fluoro-2,3,3a,4-tetrahydro-1H,7H-imidazo[1',5':4,5][1,4]oxazino[3,2-f]indazol-1-one]"
0.04 nM,18.87 fold,,,,,,,"Cc1cc(-n2nc3c(c2N2C[C@@H]4COc5cc6c(cnn6C(C)(C)C)c(F)c5N4C2=O)[C@H](C)N(C(=O)c2cc4cc([C@H]5CCOC(C)(C)C5)ccc4n2[C@@]2(c4noc(=O)[nH]4)C[C@@H]2C)CC3)cc(C)c1F [Compound 50, (R)-7-(tert-butyl)-2-((S)-5-(5-((S)-2,2-dimethyltetrahydro-2H-pyran-4-yl)-1-((1S,2S)-2-methyl-1-(5-oxo-4,5-dihydro-1,2,4-oxadiazol-3-yl)cyclopropyl)-1H-indole-2-carbonyl)-2-(4-fluoro-3,5-dimethylphenyl)-4-methyl-4,5,6,7-tetrahydro-2H-pyrazolo[4,3-c]pyridin-3-yl)-10-fluoro-2,3,3a,4-tetrahydro-1H,7H-imidazo[1',5':4,5][1,4]oxazino[3,2-f]indazol-1-one]"
0.02 nM,21.19 fold,,,,,,,"Cc1cc(-n2nc3c(c2N2C[C@@H]4COc5cc6c(cnn6CC6CC6)c(F)c5N4C2=O)[C@H](C)N(C(=O)c2cc4cc([C@H]5CCOC(C)(C)C5)ccc4n2[C@@]2(c4noc(=O)[nH]4)C[C@@H]2C)CC3)cc(C)c1F [Compound 51, (R)-7-(cyclopropylmethyl)-2-((S)-5-(5-((S)-2,2-dimethyltetrahydro-2H-pyran-4-yl)-1-((1S,2S)-2-methyl-1-(5-oxo-4,5-dihydro-1,2,4-oxadiazol-3-yl)cyclopropyl)-1H-indole-2-carbonyl)-2-(4-fluoro-3,5-dimethylphenyl)-4-methyl-4,5,6,7-tetrahydro-2H-pyrazolo[4,3-c]pyridin-3-yl)-10-fluoro-2,3,3a,4-tetrahydro-1H,7H-imidazo[1',5':4,5][1,4]oxazino[3,2-f]indazol-1-one]"
